Assay results: US11214803B2, “Modulators of YAP1 expression” (Ionis Pharmaceuticals, Inc., priority 2019, dated 2022)
Strand notation (5' to 3'): a small letter for the sugar, then the base; units joined by * are phosphorothioate-linked, units joined directly phosphodiester-linked; [ ] holds rarer units or linkages, { } end groups; capitals alone tell only the bases. k = constrained ethyl (cEt); [5mC] = 5-methylcytosine; d = 2'-deoxy (DNA)

How the values were obtained:
Yap1 mRNA = assay: Dose-dependent inhibition of human Yap1 in A-431 cells (Example 6, 5,000 cells per well, RTS4814); format: cell-based; conditions: for % UTC 148 nM / % UTC 444 nM / % UTC 1333 nM / % UTC 4000 nM: approximately 48 hours; for Yap1 mRNA, % UTC: 48 hours
Summary of the method: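 A-431 cells (5,000/well) took up oligonucleotides by free uptake at various doses for about 48 h. Yap1 mRNA was measured by RT-PCR (RTS4814), normalised to RIBOGREEN total RNA and expressed as % untreated control; IC50 by linear regression on a log/linear plot.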

[1] = Tolerability in Balb/c mice, body and organ weights (Example 11); format: in vivo; conditions: 50 mg/kg subcutaneously twice a week for four weeks, end of study
Protocol: (§1) Groups of male Balb/c mice at 4-6 weeks of age (obtained from Taconic) were injected subcutaneously twice a week for four weeks (for a total of 8 treatments) with 50 mg/kg of modified oligonucleotides. One group of male Balb/c mice was injected with PBS. Mice were euthanized on day 26 post start of treatment (24 hours following the final administration).
(§2) Body weights of Balb/c mice were measured at the end of the study, and the average body weight for each group is presented in the table below. Modified oligonucleotides that caused any changes in organ weights outside the expected range for modified oligonucleotides were excluded from further studies.

[2] = Tolerability in Balb/c mice, plasma chemistry markers (Example 11); format: in vivo; conditions: 50 mg/kg subcutaneously twice a week for four weeks
Protocol: (§3) Balb/c mice were treated with modified oligonucleotides selected from studies described above and evaluated for changes in the levels of various plasma chemistry markers.
as §1

[3] = Tolerability in Balb/c mice, body and organ weights (Example 10); format: in vivo; conditions: 50 mg/kg subcutaneously twice a week for four weeks, end of study
Protocol: as §1, §2

[4] = Tolerability in Balb/c mice, plasma chemistry markers (Example 10); format: in vivo; conditions: male Balb/c mice, 50 mg/kg subcutaneously twice a week for four weeks, day 26
Protocol: as §3, §1

[5] = Table 53, A-431 cells, Yap1 mRNA, linear regression on a log/linear plot
[6] = Table 53, A-431 cells, free uptake, 148 nM, RTS4814
[7] = Table 53, A-431 cells, free uptake, 444 nM, RTS4814
[8] = Table 53, A-431 cells, free uptake, 1333 nM, RTS4814
[9] = Table 53, A-431 cells, free uptake, 4000 nM, RTS4814
[10] = Table 54, A-431 cells, Yap1 mRNA, linear regression on a log/linear plot
[11] = Table 54, A-431 cells, free uptake, 148 nM, RTS4814
[12] = Table 54, A-431 cells, free uptake, 444 nM, RTS4814
[13] = Table 54, A-431 cells, free uptake, 1333 nM, RTS4814
[14] = Table 54, A-431 cells, free uptake, 4000 nM, RTS4814

| Substance | Kidney weight [1] | Liver weight [1] | Spleen weight [1] | body weight [1] | ALT [2] | AST [2] | BUN [2] | TBIL [2] | Kidney weight [3] | Liver weight [3] | Spleen weight [3] | body weight [3] | ALT (U/L) [4] | AST (U/L) [4] | TBIL [4] | also measured |
| --- | --- | --- | --- | --- | --- | --- | --- | --- | --- | --- | --- | --- | --- | --- | --- | --- |
| 715473 (kT*k[5mC]*kT*dT*dT*dA*dT*d[5mC]*dT*dA*dG*d[5mC]*dT*kT*kG*kG; antisense) [compound 715473] | 0.31 g | 1.46 g | 0.09 g | 20 g | 3046 U/L | 2861 U/L | 20 mg/dL | 2.77 mg/dL |  |  |  |  |  |  |  | IC50 (Yap1 mRNA; [5]): 1300 nM; % UTC 148 nM (Yap1 mRNA; [6]): 89 % UTC; % UTC 444 nM (Yap1 mRNA; [7]): 67 % UTC; % UTC 1333 nM (Yap1 mRNA; [8]): 50 % UTC; % UTC 4000 nM (Yap1 mRNA; [9]): 30 % UTC |
| 715609 (kT*kG*kT*dG*dT*dA*dG*dG*d[5mC]*dT*dG*dA*d[5mC]*kT*kT*kA; antisense) [compound 715609] |  |  |  |  |  |  |  |  | 0.33 g | 2.64 g | 0.10 g | 21 g | 1120 U/L | 2941 U/L | 0.67 mg/dL |  |
| 715558 (k[5mC]*kA*kG*dG*dA*dA*dG*dT*dT*dA*dT*dT*d[5mC]*kA*kG*k[5mC]; antisense) [compound 715558] |  |  |  |  |  |  |  |  | 0.38 g | 1.33 g | 0.12 g | 22 g | 65 U/L | 91 U/L | 0.16 mg/dL | IC50 (Yap1 mRNA; [10]): > 4000 nM; % UTC 148 nM (Yap1 mRNA; [11]): 94 % UTC; % UTC 444 nM (Yap1 mRNA; [12]): 112 % UTC; % UTC 1333 nM (Yap1 mRNA; [13]): 80 % UTC; % UTC 4000 nM (Yap1 mRNA; [14]): 66 % UTC |
| 715484 (kT*kA*k[5mC]*dT*d[5mC]*dT*dT*dT*dG*dG*dA*dA*dA*k[5mC]*k[5mC]*kA; antisense) [compound 715484] |  |  |  |  |  |  |  |  | 0.37 g | 1.47 g | 0.13 g | 22 g | 116 U/L | 110 U/L | 0.15 mg/dL |  |
| 716480 (antisense kG*k[5mC]*kA*dA*dG*dT*d[5mC]*dT*dT*dG*dT*dA*dA*kG*kT*kA) [compound 716480] | 0.34 g | 2.58 g | 0.10 g | 21 g | 2156 U/L | 844 U/L | 19 mg/dL | 0.14 mg/dL |  |  |  |  |  |  |  | Yap1 mRNA, % UTC (Yap1 mRNA; Table 55, 148 nM, free uptake, A-431 cells 5,000 cells per well, RTS4814): 80 % UTC; Yap1 mRNA, % UTC (Yap1 mRNA; Table 55, 444 nM, free uptake, A-431 cells 5,000 cells per well, RTS4814): 56 % UTC; Yap1 mRNA, % UTC (Yap1 mRNA; Table 55, 1333 nM, free uptake, A-431 cells 5,000 cells per well, RTS4814): 38 % UTC; Yap1 mRNA, % UTC (Yap1 mRNA; Table 55, 4000 nM, free uptake, A-431 cells 5,000 cells per well, RTS4814): 39 % UTC; IC50 (Yap1 mRNA; Table 55, A-431 cells 5,000 cells per well, free uptake, RTS4814): 1000 nM |
| 715415 (k[5mC]*kG*kA*dA*d[5mC]*dA*dT*dG*d[5mC]*dT*dG*dT*dG*kG*kA*kG; antisense) [compound 715415] | 0.40 g | 1.79 g | 0.17 g | 25 g | 1075 U/L | 701 U/L | 17 mg/dL | 0.14 mg/dL |  |  |  |  |  |  |  | IC50 (Yap1 mRNA; [5]): 1800 nM; % UTC 148 nM (Yap1 mRNA; [6]): 84 % UTC; % UTC 444 nM (Yap1 mRNA; [7]): 59 % UTC; % UTC 1333 nM (Yap1 mRNA; [8]): 55 % UTC; % UTC 4000 nM (Yap1 mRNA; [9]): 42 % UTC |
| 716481 (antisense kT*k[5mC]*kA*dG*d[5mC]*dA*dT*dA*dG*dA*dA*dG*dT*kA*kG*kG) [compound 716481] | 0.36 g | 1.99 g | 0.13 g | 22 g | 1935 U/L | 2248 U/L | 21 mg/dL | 0.46 mg/dL |  |  |  |  |  |  |  | IC50 (Yap1 mRNA; [10]): 2000 nM; % UTC 148 nM (Yap1 mRNA; [11]): 89 % UTC; % UTC 444 nM (Yap1 mRNA; [12]): 90 % UTC; % UTC 1333 nM (Yap1 mRNA; [13]): 58 % UTC; % UTC 4000 nM (Yap1 mRNA; [14]): 32 % UTC |
| 715582 (kG*kT*k[5mC]*dA*dA*dG*d[5mC]*d[5mC]*dT*dG*dT*d[5mC]*dT*kG*kG*kA; antisense) [compound 715582] |  |  |  |  |  |  |  |  | 0.38 g | 1.46 g | 0.16 g | 22 g | 2460 U/L | 2320 U/L | 2.09 mg/dL | IC50 (Yap1 mRNA; [10]): > 4000 nM; % UTC 148 nM (Yap1 mRNA; [11]): 98 % UTC; % UTC 444 nM (Yap1 mRNA; [12]): 63 % UTC; % UTC 1333 nM (Yap1 mRNA; [13]): 93 % UTC; % UTC 4000 nM (Yap1 mRNA; [14]): 70 % UTC |
| 715480 (kG*kG*kA*dA*dA*d[5mC]*d[5mC]*dA*dT*dT*dA*dT*dT*kA*k[5mC]*kT; antisense) [compound 715480] |  |  |  |  |  |  |  |  | 0.34 g | 1.64 g | 0.12 g | 22 g | 791 U/L | 439 U/L | 0.15 mg/dL | IC50 (Yap1 mRNA; [5]): > 4000 nM; % UTC 148 nM (Yap1 mRNA; [6]): 91 % UTC; % UTC 444 nM (Yap1 mRNA; [7]): 79 % UTC; % UTC 1333 nM (Yap1 mRNA; [8]): 67 % UTC; % UTC 4000 nM (Yap1 mRNA; [9]): 59 % UTC |
| 715593 (kA*kT*kT*dT*d[5mC]*dT*dT*dT*dG*dG*d[5mC]*dA*dG*kA*kG*kA; antisense) [compound 715593] |  |  |  |  |  |  |  |  | 0.30 g | 1.12 g | 0.13 g | 19 g | 628 U/L | 610 U/L | 0.11 mg/dL |  |
| 715557 (kG*kG*kA*dA*dG*dT*dT*dA*dT*dT*d[5mC]*dA*dG*k[5mC]*kA*kG; antisense) [compound 715557] |  |  |  |  |  |  |  |  | 0.31 g | 1.96 g | 0.12 g | 21 g | 1755 U/L | 2377 U/L | 0.28 mg/dL |  |
